# Reference: article PMC11078990, “Identification and characterization of small molecule inhibitors of the LINE-1 retrotransposon endonuclease” (Nature Communications, 2024)
# Several values for one entry are separate records, joined by “and”; a condition that tells them apart may be missing. Identical values can stand only once.
# Experiments:
# HeLa Tet-On cells = conditions: human, 48 h, 25 μM
# APE1 = target: T1, APE1 (Homo sapiens, UniProt P27695); assay: APE1 fluorescent oligonucleotide activity assay (abasic site substrate); type: biochemical; conditions: for APE1 percent activity, Replicate 1 / APE1 percent activity, Replicate 2 / APE1 percent activity, Replicate 3 / APE1 percent activity, average: compound at 25 μM; for APE1 percent activity, average: average of 3 replicates; for activity at 25 µM: inhibitors at 25 μM, relative to 0 μM inhibitor control, mean ± s.d., 3 independent experiments, read-out: APE1 activity (%)
# T1 construct: purchased New England Biolabs (NEB) M0282S
# [1] = tested on: substrate oligonucleotide used in the EN activity assay; type: binding; set-up: key to Binding Detected? (Y/N): Binding Detected? (Y/N); Binding Detected? (Y/N)
# [2] = target: L1 EN (LINE-1 retrotransposon endonuclease domain) (Homo sapiens, UniProt O00370, N5T); assay: Fluorescent oligonucleotide EN nicking activity assay; type: biochemical
# Sequence of L1 EN (LINE-1 retrotransposon endonuclease domain) (O00370 1-239 N5T): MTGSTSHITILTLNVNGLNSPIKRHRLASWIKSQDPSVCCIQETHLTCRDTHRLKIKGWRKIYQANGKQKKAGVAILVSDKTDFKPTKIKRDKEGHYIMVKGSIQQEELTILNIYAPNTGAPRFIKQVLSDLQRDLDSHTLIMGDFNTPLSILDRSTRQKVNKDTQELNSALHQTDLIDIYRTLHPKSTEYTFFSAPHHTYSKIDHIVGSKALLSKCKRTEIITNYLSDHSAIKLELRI
# L1 retrotransposition = assay: HeLa dual-luciferase L1 retrotransposition assay; type: cell-based, human; conditions: for L1 retrotransposition, average: average of 4 replicates, Figure 4b; for Effect on L1 retrotransposition: HeLa cells
# [3] = [Inhibitor] 5 μM, technical replicates 1-3, Fig. 2b source data, 5 µM
# [4] = [Inhibitor] 5 μM, technical replicates 1-3, Fig. 2b source data, read-out: EN activity, percent of no inhibitor control
# [5] = [Inhibitor] 25 μM, technical replicates 1-3, Fig. 2b source data, 25 µM
# [6] = [Inhibitor] 25 μM, technical replicates 1-3, Fig. 2b source data, read-out: EN activity, percent of no inhibitor control
# [7] = [Inhibitor] 100 μM, technical replicates 1-3, Fig. 2b source data, 100 µM
# [8] = [Inhibitor] 100 μM, technical replicates 1-3, Fig. 2b source data, read-out: EN activity, percent of no inhibitor control
# [9] = [Inhibitor] 250 μM, technical replicates 1-3, Fig. 2b source data, 250 µM
# [10] = [Inhibitor] 250 μM, technical replicates 1-3, Fig. 2b source data, read-out: EN activity, percent of no inhibitor control
# [11] = [Inhibitor] 500 μM, technical replicates 1-3, Fig. 2b source data, 500 µM
# [12] = [Inhibitor] 500 μM, technical replicates 1-3, Fig. 2b source data, read-out: EN activity, percent of no inhibitor control
# [13] = [Inhibitor] 750 μM, technical replicates 1-3, Fig. 2b source data, 750 µM
# [14] = [Inhibitor] 750 μM, technical replicates 1-3, Fig. 2b source data, read-out: EN activity, percent of no inhibitor control
# [15] = [Inhibitor] 1000 μM, technical replicates 1-3, Fig. 2b source data, 1000 µM
# [16] = [Inhibitor] 1000 μM, technical replicates 1-3, Fig. 2b source data, read-out: EN activity, percent of no inhibitor control
# [17] = [Inhibitor] 2500 μM, technical replicates 1-3, Fig. 2b source data, 2500 µM
# [18] = [Inhibitor] 10 μM, technical replicates 1-3, Fig. 2b source data, 10 µM
# [19] = [Inhibitor] 10 μM, technical replicates 1-3, Fig. 2b source data, read-out: EN activity, percent of no inhibitor control
# [20] = [Inhibitor] 50 μM, technical replicates 1-3, Fig. 2b source data, 50 µM
# [21] = [Inhibitor] 50 μM, technical replicates 1-3, Fig. 2b source data, read-out: EN activity, percent of no inhibitor control
# [22] = [Inhibitor] 1 μM, technical replicates 1-3, Fig. 2b source data, 1 µM
# [23] = [Inhibitor] 1 μM, technical replicates 1-3, Fig. 2b source data, read-out: EN activity, percent of no inhibitor control
Structure (SMILES),"APE1 percent activity, Replicate 1 (APE1)","APE1 percent activity, Replicate 2 (APE1)","APE1 percent activity, Replicate 3 (APE1)","APE1 percent activity, average (APE1)",activity at 25 µM (APE1),Binding Detected? (Y/N) [1],"EN activity, percent of no inhibitor control [2, 3]","remaining activity at 5 µM [2, 4]","EN activity, percent of no inhibitor control [2, 5]","EN activity, percent of no inhibitor control [2, 7]","remaining activity at 100 µM [2, 8]","EN activity, percent of no inhibitor control [2, 9]","remaining activity at 250 µM [2, 10]","EN activity, percent of no inhibitor control [2, 11]","EN activity, percent of no inhibitor control [2, 15]","remaining activity at 1000 µM [2, 16]","EN activity, percent of no inhibitor control [2, 18]","remaining activity at 10 µM [2, 19]","EN activity, percent of no inhibitor control [2, 20]","remaining activity at 50 µM [2, 21]",also measured
COc1ccc(OC)c(NS(=O)(=O)c2ccc(NS(=O)(=O)c3cccc([N+](=O)[O-])c3)cc2)c1 [AD36],121.786%,104.892%,127.866%,118.181%,118 ± 11.9%,N,91.0252% and 84.1869%,89.6%,101.21% and 100.403%,79.4211% and 84.6024%,96.7%,66.0801% and 55.4717%,47.9%,50.9528% and 49.6683%,29.1344% and 22.6241%,19.6%,,,,,"PrestoBlue (viability), average (HeLa Tet-On cells): 15.2; Percent APE1 activity, average (APE1; 250 µM, Supplementary Fig. 6b, n=3): 108.9%; Percent APE1 activity, replicates (APE1; 250 µM, Supplementary Fig. 6b, replicates 1-3): 115.202% and 104.299% and 107.269%; remaining activity at 25 µM [2, 6]: 82%; remaining activity at 500 µM [2, 12]: 60.1%; EN activity, percent of no inhibitor control [2, 13]: 44.0742% and 35.8636%; remaining activity at 750 µM [2, 14]: 31.6%; EN activity, percent of no inhibitor control ([2]; [Inhibitor] 1750 μM, technical replicates 1-3, Fig. 2b source data, 1750 µM): 17.5242% and 11.215% and 25.1816%; EN activity, percent of no inhibitor control [2, 17]: 18.2597% and 42.0507% and 24.6475%; L1 retrotransposition, average (L1 retrotransposition; 0.5 μM inhibitor): 4.647; L1 retrotransposition, average (L1 retrotransposition; 1 μM inhibitor): 4.699; L1 retrotransposition, average (L1 retrotransposition; 5 μM inhibitor): 4.066; L1 retrotransposition, average (L1 retrotransposition; 10 μM inhibitor): 4.169; L1 retrotransposition, average (L1 retrotransposition; 25 μM inhibitor): 2.81; L1 retrotransposition, average (L1 retrotransposition; 50 μM inhibitor): 1.253; Luciferase (retrotransposition), average (L1 retrotransposition; Figure 4a Graph 4, 25μM, 0μM average 3.426): 1.266; Luciferase (retrotransposition), replicates (L1 retrotransposition; Figure 4a Graph 4, 25μM, Replicates 1-4, 0μM average 3.426): 1.765 and 0.7621 and 1.278 and 1.259; Effect on L1 retrotransposition (L1 retrotransposition): some activity in the retrotransposition assay"
Cc1cc(O[C@H](C)C(=O)NC[C@H]2CC[C@H](C(=O)O)CC2)c2c3c(c(=O)oc2c1)CCC3 [AD50],117.885%,112.48%,116.717%,115.694%,116 ± 2.8%,N,,,105.309% and 98.5437% and 118.945%,99.5828% and 92.7301%,105%,85.2034% and 69.8502%,78.9%,1.6976% and 1.409%,0.8764% and -0.04895% and -0.3009%,,88.1732% and 95.3255%,89.8%,102.098% and 94.5993%,99.1%,"remaining activity at 500 µM [2, 12]: 1.24%; EN activity, percent of no inhibitor control [2, 17]: 1.256% and 0.4525% and 1.333%"
Cc1ccc(NC(=O)CSc2nc(-c3ccccc3F)nc3c2Cc2c(CO)cnc(C)c2O3)cc1 [AD28],117.021%,119.222%,118.718%,118.32%,118 ± 1.2%,N,89.9598% and 81.1542%,92%,,86.184% and 81.609%,79.1%,59.9195% and 84.2317% and 41.5158%,,4.092% and 40.0005% and 32.2238%,23.297% and 19.7447%,37.6%,,,92.3894% and 103.331%,89.2%,"EN activity, percent of no inhibitor control [2, 22]: 96.841% and 106.468%; remaining activity at 1 µM [2, 23]: 95.4%; EN activity, percent of no inhibitor control ([2]; [Inhibitor] 20 μM, technical replicates 1-3, Fig. 2b source data, 20 µM): 104.354% and 99.6299%; remaining activity at 20 µM ([2]; [Inhibitor] 20 μM, technical replicates 1-3, Fig. 2b source data, read-out: EN activity, percent of no inhibitor control): 87.7%; EN activity, percent of no inhibitor control [2, 13]: 45.0869% and 49.2787%; remaining activity at 750 µM [2, 14]: 52.5%"
COc1ccc([N+](=O)[O-])cc1NC(=O)c1ccc2c(c1)N(Cc1cc(C)ccc1C)C(=O)c1ccccc1S2(=O)=O [AD34],115.867%,110.244%,115.389%,113.833%,114 ± 3.1%,N,106.747% and 72.7727% (2×),,17.0147%,-0.6009% and -1.977% (2×),,6.512%,4.89%,,,,61.3218%,63.6%,2.345%,1.88%,"EN activity, percent of no inhibitor control [2, 22]: 107.144% and 82.3328% (2×); remaining activity at 25 µM [2, 6]: 13.4%; Effect on L1 retrotransposition (L1 retrotransposition): did not significantly impact retrotransposition"
O=C(O)C1CCC(Cn2c(=S)[nH]c3ccc(F)cc3c2=O)CC1 (stereo not drawn) [AD41],117.184%,102.457%,114.725%,111.455%,112 ± 7.9%,N,,,,73.6781% and 70.7755%,89.5%,52.6672% and 53.2546%,37.1%,15.8485% and 15.0123%,2.51% and 3.937%,3.26%,93.0871% and 88.0691%,99.2%,81.1063% and 95.3657%,81.9%,"remaining activity at 500 µM [2, 12]: 16.8%; EN activity, percent of no inhibitor control [2, 17]: -0.5395% and 2.354% and 1.088%; EN activity, percent of no inhibitor control ([2]; [Inhibitor] 5000 μM, technical replicates 1-3, Fig. 2b source data, 5000 µM): 3.138% and -0.1325% and -0.6231%"
O=C(Nc1ccc(S(=O)(=O)NCc2ccco2)cc1)c1cc(NS(=O)(=O)c2cccs2)cc(NS(=O)(=O)c2cccs2)c1 [AD18],95.6087%,100.395%,113.415%,103.14%,103 ± 9.2%,N,110.276% and 111.074%,98.7%,99.7158% and 102.855%,45.2675% and 31.8714%,46.3%,-2.192% and 4.074% and 1.188%,,1.364% and -0.7511% and -2.792%,4.465% and 5.692%,3.32%,114.402% and 118.423%,107%,87.6677% and 95.4608%,82%,"EN activity, percent of no inhibitor control [2, 22]: 113.77% and 114.319%; remaining activity at 1 µM [2, 23]: 128%; remaining activity at 25 µM [2, 6]: 118%; Effect on L1 retrotransposition (L1 retrotransposition): did not significantly impact retrotransposition"
"NC[C@H]1CC[C@H](C(=O)O)CC1 [tranexamic acid, reference compound]",,,,,,,,,,,,,,,,,,,,,"IC50 in the fluorescent oligonucleotide assay [2]: does not inhibit sufficiently to calculate an; inhibition at 25000 µM ([2]; 25 mM, highest soluble concentration): ~75%"
